Series [1] has as its system normal fat cells grown in culture. Nature of the series: Lipid stored in cultured fat cells (Oil red O staining). The series is classed as cell-based. Conditions: normal fat cells (adipocytes) grown in culture, also cardiac cells. From the text: Such studies can be conducted using Oil red 0 staining for lipids.
To this end at least a portion of a mammal or tissue can be treated with a kinase inhibitor such that the amount of lipid in the cells is reduced. Any suitable kinase inhibitor can be used. Methods for determining suitable inhibitors are well known. For example, samples of adipocytes can be grown in the presence and absence of a kinase inhibitor and stained with Oil red 0 by known methods to determine whether the kinase inhibitor causes a reduction in stored fat. […] Exemplary kinase inhibitors that are suitable for the invention include erbB inhibitors, especially including GW2974, GW572016, and the like. […] Au565 cells were grown under normal conditions known in the art and treated for 2 days with GW2974 (25 μM). The cells were collected, washed and sonicated in water (2,000,000 cells in 200 μL of water). The cells were spun down and were tested for acylcamitines (byproducts of mitochondrial fatty acid oxidation) by MS/MS for intraceullar metabolites.

Series [2] relates to Au565 cells. Nature of the series: p-eEF-2 expression by IHC. It is filed as cell-based. Conditions: FIG. 7B. An excerpt:
FIG. 7B is a photograph of stained cells showing the expression of p-eEF2 in Au565 cells in the presence of various compounds.

In series [3] the test system is primary human cardiac myocytes. Nature of the series: Lipid staining of cardiomyocytes. It is filed as cell-based. The following applies: FIG. 4. From the text: FIG. 4 are photographs of primary human cardiac myocytes grown under various conditions and stained for lipids.
FIG. 5 is a bar graph illustrating the percentage of human cardiomyocytes testing positive for lipids under various conditions.

Series [4] relates to Au565 cells. Nature of the series: Western blot for p-eEF-2. The series is classed as cell-based. The following applies: FIG. 7A. An excerpt:
FIG. 7A a photograph of a Western Blot showing the affect of certain tyrosine kinase inhibitors on expression p-eEF2 and p-AMPKα.
(§1) This can be seen in MDA-MB-468 breast cancer cells where calcium is detected by fluorescently by Fluoro-4. This redistribution of calcium results in the activation and phosphorylation of AMPK. Activated AMPK represses translation by phosphorylation of the translation factor eEF-2 (FIG. 7), which inactivates eEF-2 and represses protein synthesis, a known effect of TKIs.

Series [5] has as its system MDA-MB-468 breast cancer cells. Nature of the series: Intracellular calcium detected by Fluoro-4. The series is classed as cell-based. The following applies: MDA-MB-468 cells, Fluoro-4, FIG. 6.
Text: FIG. 6 are photographs of MDA-MB-468 cells treated by GW-2974 and intracellular Ca detected by Fluoro-4.
as §1

The test system of series [6] is Au565 cells. Nature of the series: Microarray mRNA expression profile of Au565 cells treated with GW2974. The series is classed as cell-based, human. Conditions: GW2974 25 μM vs untreated. On the procedure:
Au565 cells were grown under normal conditions and were untreated or treated with GW2974 (25 μM). Cells were pelleted, snap frozen in liquid nitrogen and subjected to microarray analysis. RNA was isolated using the Agilent Total RNA Isolation Kit. Cy3 and Cy5 labeled cRNA was prepared using the Agilent Low RNA Input Fluorescent Linear Amplification Kit. Labeled cRNAs were hybridized to a G4110A Human 1A(V2) microarray consisting of 60-mer oligonucleotides representing over 18K well-characterized, full length, human genes.

For series [7], the system named is HER2-expressing human cardiomyocytes. Nature of the series: AMPK activation, ATP production and TNFα-induced apoptosis in cardiomyocytes. The series is classed as cell-based.
Series [8] concerns Au565 cells. Nature of the series: Oil red lipid staining of Au565 cells. It is filed as cell-based. The following applies: FIG. 2 and FIG. 3.
A further series deals with cardiomyocytes cells. Nature of the series: ERRα and MCAD in cardiomyocytes treated with kinase inhibitors. The following applies: FIG. 8. The series is classed as cell-based. From the text:
FIG. 8 is a photograph of ERRα and MCAD in cardiomyocytes cells with and without treatment by various kinase inhibitors.
ERRα plays a role in lipid metabolism in cardiac cells, and MCAD is an enzyme that breaks down lipids and fatty acids. Mutations in MCAD is a common genetic disorder, especially in those of northern European descent.

For series [9], the system named is Au565 cells. Nature of the series: Acylcarnitines (byproducts of mitochondrial fatty acid oxidation) by MS/MS in treated Au565 cells. It is filed as cell-based. The following applies: Au565 cell pellet, GW2974 25 μM, 2 days. From the text:
In addition, tyrosine kinase inhibitors can be used to reduce fat in cells, particularly cells that are otherwise normal or that lack protein tyrosine kinase activity mediated disease. To this end at least a portion of a mammal or tissue can be treated with a kinase inhibitor such that the amount of lipid in the cells is reduced. Any suitable kinase inhibitor can be used. Methods for determining suitable inhibitors are well known. For example, samples of adipocytes can be grown in the presence and absence of a kinase inhibitor and stained with Oil red 0 by known methods to determine whether the kinase inhibitor causes a reduction in stored fat. Those kinase inhibitors that cause an observable reduction in fat storage are suitable for the present invention. Exemplary kinase inhibitors that are suitable for the invention include erbB inhibitors, especially including GW2974, GW572016, and the like. […] Au565 cells were grown under normal conditions known in the art and treated for 2 days with GW2974 (25 μM). The cells were collected, washed and sonicated in water (2,000,000 cells in 200 μL of water). The cells were spun down and were tested for acylcamitines (byproducts of mitochondrial fatty acid oxidation) by MS/MS for intraceullar metabolites.

Several values for one entry are separate records, joined by “and”; a condition that tells them apart may be missing. Identical values can stand only once. Entries after “also recorded” stand apart in the source; their conditions may differ.

For the compound `CS(=O)(=O)CCNCc1ccc(-c2ccc3ncnc(Nc4ccc(OCc5cccc(F)c5)c(Cl)c4)c3c2)o1` [lapatinib], the results for the “lipid stored within fat cells” value in [1] and in series [1] (listed as GW572016) were “loss of fat” and “rapidly disappears”, respectively.

Take `CN(C)c1cc2c(Nc3ccc4c(cnn4Cc4ccccc4)c3)ncnc2cn1` [GW2974]: in the series with Au565 cells [2], the “p-eEF-2 expression by IHC” value is “do”. Further, in series [3], the “lipids in cardiomyocyte cells compared with untreated cells” value is given as “not decrease”. For the same compound, the “p-eEF-2 by western blot” value with Au565 cells [4] is reported as “dramatically increased”. Also, the intracellular calcium distribution entry in series [5] is listed as “redistribution of intracellular calcium”. Moreover, in the series on Au565 cells [6], the “ACAT2: GW2974 change compared to control” value is given as −5.3, the “AKAP5: GW2974 change compared to control” value is recorded as −7.3x, the “AVIL: GW2974 change compared to control” value is reported as 4.2x and the “BBOX1: GW2974 change compared to control” value was 5.1. Besides, in the series with Au565 cells [6], the “CAMK4: GW2974 change compared to control” value was 4.5x, the “CASK: GW2974 change compared to control” value is −4.2x, the “CCR2: GW2974 change compared to control” value was −5.0x and the “CD38: GW2974 change compared to control” value is recorded as −4.4x. In the series on Au565 cells [6], the “CLCA1: GW2974 change compared to control” value is reported as −6.7x, the “CLSP: GW2974 change compared to control” value was −4.0x, the “CYP2C8: GW2974 change compared to control” value came to 4.5x and the “ELOVL2: GW2974 change compared to control” value was −4.4x. Moreover, in the series on Au565 cells [6], the “FABP1: GW2974 change compared to control” value is listed as −7.2, the “FASN: GW2974 change compared to control” value was −4.3x, the “FKSG14: GW2974 change compared to control” value was −4.6x and the “FLJ12476: GW2974 change compared to control” value is 5.0x. Moreover, in the series on Au565 cells [6], the “FREQ: GW2974 change compared to control” value is given as −5.3x, the “GLS: GW2974 change compared to control” value stood at 5.1, the “GNB5: GW2974 change compared to control” value was −4.1x and the “GSTT2: GW2974 change compared to control” value was −5.3. In the series with Au565 cells [6], the “HPCAL1: GW2974 change compared to control” value is recorded as −4.5x; the “HSPA8: GW2974 change compared to control” value is recorded as −4.2x; the “LDLR: GW2974 change compared to control” value is recorded as −5.2x; the “NRXN3: GW2974 change compared to control” value is 4.58x and 4.6x. In the series with Au565 cells [6], the “PFKL: GW2974 change compared to control” value is reported as −4.7; the “PRKG1: GW2974 change compared to control” value was 6.5x and 6.51x; the “SAT: GW2974 change compared to control” value came to 4.4; the “SCN1A: GW2974 change compared to control” value stood at 4.1x. Further, in the series on Au565 cells [6], the “SOAT1: GW2974 change compared to control” value was −4.0x, the “STK33: GW2974 change compared to control” value was −5.3x and the “TGFβ1: GW2974 change compared to control” value amounted to 5.31x. The “S100A9: GW2974 change compared to control” value in the series with Au565 cells [6] (Table IV A) is listed as −5.5x. For the same compound, the “S100A9: GW2974 change compared to control” value with Au565 cells [6] (Table IV C) is −5.4. In series [7], the AMPK activation entry was “can activate AMPK” and the ATP production entry is listed as “increases ATP production”. Further, the “cardiomyocyte apoptosis / cell death induced by TNFα” value in series [7] (TNFα) is “protecting against apoptosis induced by TNFα”. Also, in the series on Au565 cells [8], the “lipids in Au565 cells (oil red staining)” value was “reduced”. Besides, the MCAD expression entry in the series on cardiomyocytes cells is given as “completely absent”. Moreover, the “lipid stored within fat cells” value in series [1] is “rapidly disappears; also recorded: lose lipid”. Moreover, in the series on Au565 cells [9], the “Acylcarnitines C2” value is given as 258.88 pmoles of protein, the “Acylcarnitines C16” value is on record as 0.83 pmoles of protein and the “Acylcarnitines C18:1” value is given as 4.1 pmoles of protein.

As to `COc1cc2ncnc(Nc3ccc(F)c(Cl)c3)c2cc1OCCCN1CCOCC1` [Iressa], in the series on Au565 cells [2], the “p-eEF-2 expression by IHC” value is “do”.

These data come from patent US8709738B2, “Methods for predicting cardiac toxicity” (Quintiles Transnational Corporation, priority 2006, dated 2014).
